Measurements from patent publication US20210196720A1 (UROVANT SCIENCES GMBH, priority 2018, published 2021).
Read-outs that look alike come from different tables or passages of the source.

Assays:
β3-AR = β3-AR (Homo sapiens, UniProt P13945); assay: biochemical
[1] = Human plasma protein binding; assay type: in vitro ADME
[2] = Effect of food on oral absorption; assay type: in vivo, human; conditions: for Cmax / Tmax / AUC(0-t) / AUC(0-inf): human, plasma, oral; for AUC(0-t): read-out: AUC0-24
[3] = Phase 2b OAB study, adverse events
Source text: A placebo group was included in the main study, and a group that received tolterodine monotherapy was included in the main study and in the extension.

Phase 1 safety data = assay type: in vivo; conditions: Phase 1, single 2-600 mg, multiple 25-400 mg
Source text: Safety data from 16 Phase 1 studies, which include 15 completed Phase 1 studies and 1 study that was terminated early (this study was terminated for reasons unrelated to efficacy or safety) was collected.

[4] = Phase 2b OAB study, trough concentrations; assay type: in vivo, human; conditions: OAB patients
CYP2D6 = CYP2D6 (Homo sapiens, UniProt P10635); conditions: Rutman et al. 2019; cited from earlier work
β1-AR = target: T1, β1-AR (Homo sapiens, UniProt P08588); assay: Competition binding assay, recombinant β1-AR
T1 construct: expressed in transfected cells; membranes prepared from them

CYP3A4 = CYP3A4 (Homo sapiens, UniProt P08684); assay: In vitro CYP metabolism; assay type: in vitro ADME
[5] = Aqueous vs non-aqueous tablet bioequivalence, 50 mg; assay type: in vivo, human
Source text: An open-label, single-dose, randomized, two-period, two-treatment, two-sequence, crossover Phase 1 study evaluated the relative bioequivalence of two types of tablets with slightly different composition: aqueous tablet (test) and non-aqueous tablet (reference).

[6] = human, in vivo
Source text: The accumulation potential of circulating metabolites in plasma was not estimated due to insufficient data from later time points to enable estimation of half-life.

[7] = 50 mg, high-fat meal, non-Japanese young males
[8] = 50 mg, standard Japanese breakfast, Japanese young males
[9] = 150 mg multiple dose, middle-aged and elderly females, Day 1
[10] = female, 150 mg, 150 mg multiple dose day 14, middle-aged females, fed
[11] = male, 50 mg, single 50 mg, Japanese young males, fed
[12] = male, 50 mg, single 50 mg, non-Japanese young males, fed

Sequence of β3-AR (P13945 whole entry): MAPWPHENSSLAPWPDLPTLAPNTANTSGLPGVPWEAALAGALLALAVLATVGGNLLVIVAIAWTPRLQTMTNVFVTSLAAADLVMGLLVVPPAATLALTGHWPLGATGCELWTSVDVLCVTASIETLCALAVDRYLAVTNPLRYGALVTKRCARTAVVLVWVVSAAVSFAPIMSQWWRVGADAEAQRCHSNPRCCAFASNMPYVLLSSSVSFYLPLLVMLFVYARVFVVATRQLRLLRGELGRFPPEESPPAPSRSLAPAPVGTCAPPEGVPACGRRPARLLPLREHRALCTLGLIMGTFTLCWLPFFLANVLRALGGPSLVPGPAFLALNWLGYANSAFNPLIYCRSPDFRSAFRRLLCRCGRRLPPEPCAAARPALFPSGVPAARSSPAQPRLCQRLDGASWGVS
Sequence of CYP3A4 (P08684 whole entry): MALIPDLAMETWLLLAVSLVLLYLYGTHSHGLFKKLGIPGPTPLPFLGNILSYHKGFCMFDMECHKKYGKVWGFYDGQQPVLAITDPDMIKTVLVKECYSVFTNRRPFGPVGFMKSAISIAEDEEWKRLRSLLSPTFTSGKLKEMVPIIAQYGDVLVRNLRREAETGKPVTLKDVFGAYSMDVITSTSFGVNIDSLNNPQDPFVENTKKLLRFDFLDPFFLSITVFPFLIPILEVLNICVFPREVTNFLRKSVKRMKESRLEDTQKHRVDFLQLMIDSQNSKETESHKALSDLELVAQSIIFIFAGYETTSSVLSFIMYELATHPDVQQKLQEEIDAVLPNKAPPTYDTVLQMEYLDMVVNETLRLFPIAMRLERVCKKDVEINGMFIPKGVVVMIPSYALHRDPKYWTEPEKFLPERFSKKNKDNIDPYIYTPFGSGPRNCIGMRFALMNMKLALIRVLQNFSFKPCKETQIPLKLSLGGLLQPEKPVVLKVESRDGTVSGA
T1 sequence (P08588 whole entry): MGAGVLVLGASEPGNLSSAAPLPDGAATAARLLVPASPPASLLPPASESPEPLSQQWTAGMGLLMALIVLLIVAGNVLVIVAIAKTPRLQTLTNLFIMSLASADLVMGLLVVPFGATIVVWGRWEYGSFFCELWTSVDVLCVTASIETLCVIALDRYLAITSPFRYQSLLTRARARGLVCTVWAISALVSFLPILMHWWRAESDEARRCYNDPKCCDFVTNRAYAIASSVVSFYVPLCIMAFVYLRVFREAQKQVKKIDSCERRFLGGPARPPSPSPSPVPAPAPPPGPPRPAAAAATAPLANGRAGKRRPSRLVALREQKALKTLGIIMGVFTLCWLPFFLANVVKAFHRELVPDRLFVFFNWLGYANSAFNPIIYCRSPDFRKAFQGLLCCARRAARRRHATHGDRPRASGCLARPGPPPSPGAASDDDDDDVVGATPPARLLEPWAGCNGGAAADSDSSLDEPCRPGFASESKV
Sequence of CYP2D6 (P10635 whole entry): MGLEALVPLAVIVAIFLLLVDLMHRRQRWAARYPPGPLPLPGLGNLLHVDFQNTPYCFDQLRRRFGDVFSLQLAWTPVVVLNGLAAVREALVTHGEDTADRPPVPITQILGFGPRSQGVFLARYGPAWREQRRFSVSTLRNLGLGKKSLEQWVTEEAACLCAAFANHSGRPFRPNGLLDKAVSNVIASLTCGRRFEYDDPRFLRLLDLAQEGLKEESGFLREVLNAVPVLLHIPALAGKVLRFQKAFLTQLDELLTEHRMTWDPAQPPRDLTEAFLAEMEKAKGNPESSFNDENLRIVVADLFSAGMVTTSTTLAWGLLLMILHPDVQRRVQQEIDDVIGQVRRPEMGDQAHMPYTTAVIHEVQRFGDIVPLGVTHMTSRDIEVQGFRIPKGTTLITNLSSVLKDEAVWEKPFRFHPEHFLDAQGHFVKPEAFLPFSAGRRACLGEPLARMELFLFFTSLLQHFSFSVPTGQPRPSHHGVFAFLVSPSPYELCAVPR

O=C(Nc1ccc(C[C@@H]2CC[C@H]([C@H](O)c3ccccc3)N2)cc1)[C@@H]1CCc2nccc(=O)n21 [Vibegron, (6S)-N-[4-[[(2S,5R)-5-[(R)-hydroxy(phenyl)methyl]pyrrolidin-2-yl]methyl]phenyl]-4-oxo-7,8-dihydro-6H-pyrrolo[1,2-a]pyrimidine-6-carboxamide]
IC50 (β3-AR): 193 nM
bound to human plasma proteins [1]: approximately 49%
unbound in human plasma [1]: 49%
AUC0-inf reduction, fed vs fasted [2, 7]: 46%
Cmax reduction, fed vs fasted [2, 7]: 67%
delay in Tmax, fed vs fasted [2, 7]: ~1 h
AUC0-inf reduction, fed vs fasted [2, 8]: 37%
Cmax reduction, fed vs fasted [2, 8]: 52%
Ctrough ([2]; 150 mg multiple dose day 14, middle-aged females, fed): 65.3 ± 7.87 ng/mL
AUC0-24 reduction with food vs fasted ([2]; 150 mg multiple dose, females, Day 14): ~20%
AUC0-24 with food compared to fasted [2, 9]: ~42%
Cmax with food compared to fasted [2, 9]: 59%
Cmax [2, 10]: 185 ± 32.3 ng/mL
Tmax [2, 10]: 6 h
AUC(0-t) [2, 10]: 2540 ± 334 ng·h/mL
AUC(0-inf) [2, 11]: 605 ± 222 ng·h/mL
Cmax [2, 11]: 36.2 ± 33.3 ng/mL
AUC(0-t) [2, 11]: 226 ± 112 ng·h/mL
AUC(0-inf) [2, 12]: 316 ± 127 ng·h/mL
Cmax [2, 12]: 7.6 ± 2.27 ng/mL
Tmax [2, 12]: 3 h
AUC(0-t) [2, 12]: 90.7 ± 22.9 ng·h/mL
tolerability ([3]; Phase 2b, 3 to 100 mg): generally well tolerated
≥1 AE, subjects ([3]; first 12 weeks, dose group by column): 107 n
frequency of injuries ([3]; in vivo): 0.9%
tolerability (Phase 1 safety data): generally well tolerated
mean (±SD) Ctrough ([4]; 50 mg QD): 27.4 (±18.3) ng/mL
mean (±SD) Ctrough ([4]; 100 mg QD): 73.6 (±65.5) ng/mL
CYP2D6 inhibition (CYP2D6): does not inhibit CYP2D6
binding to β1-AR (β1-AR): does not bind
CYP responsible for in vitro metabolism (CYP3A4): CYP3A4 is the predominant CYP responsible for in vitro metabolism
AUC0-inf GMR test/reference ([5]; 50 mg): 100.2%
Cmax GMR test/reference ([5]; 50 mg): 107.7%
AUC(0-inf) ([5]; 50 mg test, aqueous tablet (PMFII)): 671 ng·h/mL
Cmax ([5]; human, plasma, po, 50 mg, 50 mg reference, non-aqueous tablet (PMF1)): 38 ng/mL
Cmax ([5]; human, plasma, po, 50 mg, 50 mg test, aqueous tablet (PMFII)): 41 ng/mL
AUC(0-inf) ([5]; human, plasma, po, 50 mg, read-out: AUC0-inf): 671 ng·h/mL
dose recovered in feces [6]: approximately 59%
dose recovered in urine [6]: ~20%
total recovery of radioactivity in excreta [6]: 79%
share of plasma radioactivity ([6]; 2 hr): ~78%
share of plasma radioactivity ([6]; 4 hr): ~73%
